The source made the active and inactive calls.
How the values were obtained:
[1] = molecular target: Botulinum neurotoxin type F (Clostridium botulinum, UniProt P30996); test: High-throughput multiplex microsphere dose response for inhibitors of toxin protease, specifically Botulinum neurotoxin light chain F protease, compounds from Cherry Pick 02.; assay type: functional; conditions: read-out: EC50_MICROM
Hexokinase HKDC1 = molecular target: T1, Hexokinase HKDC1 (Homo sapiens, UniProt Q2TB90); test: HKDC1 hexokinase activators, dose response, biochemical, W721R variant (AID 504730); assay type: functional
T1 sequence (Q2TB90 whole entry): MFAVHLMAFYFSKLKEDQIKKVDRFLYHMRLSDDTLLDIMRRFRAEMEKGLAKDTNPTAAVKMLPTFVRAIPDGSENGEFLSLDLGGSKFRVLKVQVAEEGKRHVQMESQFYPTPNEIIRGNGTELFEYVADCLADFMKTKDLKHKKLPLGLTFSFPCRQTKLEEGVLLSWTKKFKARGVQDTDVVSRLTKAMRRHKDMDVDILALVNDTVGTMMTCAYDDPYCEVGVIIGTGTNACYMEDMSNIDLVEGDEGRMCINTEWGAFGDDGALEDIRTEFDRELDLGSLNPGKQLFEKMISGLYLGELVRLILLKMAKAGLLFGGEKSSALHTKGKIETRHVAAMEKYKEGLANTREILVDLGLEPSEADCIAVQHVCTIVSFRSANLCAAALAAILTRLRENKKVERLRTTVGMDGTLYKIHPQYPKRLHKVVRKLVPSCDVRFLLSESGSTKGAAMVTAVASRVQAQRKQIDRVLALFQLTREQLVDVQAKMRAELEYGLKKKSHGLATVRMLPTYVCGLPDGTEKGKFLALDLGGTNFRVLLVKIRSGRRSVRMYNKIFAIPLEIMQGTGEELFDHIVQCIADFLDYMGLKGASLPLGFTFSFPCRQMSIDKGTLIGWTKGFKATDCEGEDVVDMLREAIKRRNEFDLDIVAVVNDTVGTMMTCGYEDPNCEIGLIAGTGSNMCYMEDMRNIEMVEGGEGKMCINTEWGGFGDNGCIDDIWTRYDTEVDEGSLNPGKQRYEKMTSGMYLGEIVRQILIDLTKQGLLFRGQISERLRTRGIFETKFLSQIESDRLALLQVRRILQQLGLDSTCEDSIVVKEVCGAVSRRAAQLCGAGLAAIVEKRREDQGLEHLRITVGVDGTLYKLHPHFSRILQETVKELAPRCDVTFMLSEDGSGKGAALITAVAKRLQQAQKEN

Hexokinase-1 = Hexokinase-1 (Homo sapiens, UniProt P19367); test: hexokinase 1 activators, dose response, selectivity assay for HKDC1 activator project, biochemical (AID 504762); assay type: functional
Nonstructural protein 1 = Nonstructural protein 1 (Influenza A virus, UniProt Q194T2); assay type: functional, Influenza A virus (A/California/07/2009(H1N1))
[2] = molecular target: T2, Microphthalmia-associated transcription factor (Homo sapiens, UniProt O75030); test: TRPM1 promoter luciferase signal decrease, dose response, MITF inhibitor project, cell-based, SK-MEL-5, cherry-picked, set 3 (AID 493073); assay type: functional
T2 sequence (O75030 whole entry): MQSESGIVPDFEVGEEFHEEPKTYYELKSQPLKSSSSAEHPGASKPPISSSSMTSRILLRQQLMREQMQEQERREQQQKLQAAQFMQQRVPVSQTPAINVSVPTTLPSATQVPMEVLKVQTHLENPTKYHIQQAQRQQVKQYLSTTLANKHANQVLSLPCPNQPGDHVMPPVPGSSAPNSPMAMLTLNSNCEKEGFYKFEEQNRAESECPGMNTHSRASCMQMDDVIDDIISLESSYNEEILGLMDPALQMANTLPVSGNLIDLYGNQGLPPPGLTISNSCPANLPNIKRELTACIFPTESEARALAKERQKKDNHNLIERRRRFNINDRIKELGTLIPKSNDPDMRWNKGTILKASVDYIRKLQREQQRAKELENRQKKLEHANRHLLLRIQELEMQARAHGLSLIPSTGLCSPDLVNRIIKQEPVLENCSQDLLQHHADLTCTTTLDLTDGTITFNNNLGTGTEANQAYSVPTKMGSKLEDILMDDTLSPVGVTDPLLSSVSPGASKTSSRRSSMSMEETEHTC

Lethal factor = Lethal factor (Bacillus anthracis, UniProt P15917); test: High-throughput multiplex microsphere dose response for inhibitors of toxin protease, specifically Lethal Factor protease, compounds from Cherry Pick 02.; assay type: functional; conditions: read-out: EC50_MICROM
HEK293 = test: inhibitors of LMP1-driven NF-kB reporter, dose response, cell-based, HEK293, luciferase, cherry-pick (AID 588343); assay type: functional; conditions: Homo sapiens
[3] = molecular target: Heat shock protein HSP 90-alpha (Homo sapiens, UniProt P07900); assay type: functional, organism-based
[4] = molecular target: Latent membrane protein 1 (Human herpesvirus 4 (strain B95-8), UniProt P03230); test: TES1-eGFP NF-kB reporter inhibition versus Tet-On dsRED, dose response, selectivity assay for LMP1 NF-kB inhibitor project, imaging, HEK293T, dual-color eGFP/dsRED, cherry-picks (AID 588398); assay type: functional, cell-based
[5] = molecular target: Botulinum neurotoxin type A (Clostridium botulinum (strain Hall / ATCC 3502 / NCTC 13319 / Type A), UniProt P0DPI1); test: High-throughput multiplex microsphere dose response for inhibitors of toxin protease, specifically Botulinum neurotoxin light chain A protease, compounds from Cherry Pick 02.; assay type: functional; conditions: read-out: EC50_MICROM
[6] = THP-1 cell cytotoxicity, cytotoxicity control, set 6 (AID 602433); assay type: functional; conditions: Mycobacterium tuberculosis

Nonstructural protein 1, sequence (Q194T2 whole entry): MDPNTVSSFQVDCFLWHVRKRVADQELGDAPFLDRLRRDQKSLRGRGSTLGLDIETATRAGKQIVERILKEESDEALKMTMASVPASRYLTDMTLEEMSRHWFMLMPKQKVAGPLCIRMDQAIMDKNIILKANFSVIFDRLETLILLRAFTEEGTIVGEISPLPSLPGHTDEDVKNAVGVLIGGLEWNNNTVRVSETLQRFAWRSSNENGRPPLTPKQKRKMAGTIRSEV
Latent membrane protein 1, sequence (P03230 whole entry): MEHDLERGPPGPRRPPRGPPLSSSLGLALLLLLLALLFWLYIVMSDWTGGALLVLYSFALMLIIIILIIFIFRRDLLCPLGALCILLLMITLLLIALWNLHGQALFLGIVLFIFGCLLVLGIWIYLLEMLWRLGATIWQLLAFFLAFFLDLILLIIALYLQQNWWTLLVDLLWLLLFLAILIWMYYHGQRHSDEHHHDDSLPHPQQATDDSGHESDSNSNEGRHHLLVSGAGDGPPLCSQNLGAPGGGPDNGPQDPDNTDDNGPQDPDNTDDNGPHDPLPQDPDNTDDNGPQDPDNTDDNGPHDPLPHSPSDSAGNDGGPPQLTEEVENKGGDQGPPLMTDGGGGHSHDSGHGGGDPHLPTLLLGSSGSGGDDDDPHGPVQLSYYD
Botulinum neurotoxin type A, sequence (P0DPI1 2-448 limits assumed): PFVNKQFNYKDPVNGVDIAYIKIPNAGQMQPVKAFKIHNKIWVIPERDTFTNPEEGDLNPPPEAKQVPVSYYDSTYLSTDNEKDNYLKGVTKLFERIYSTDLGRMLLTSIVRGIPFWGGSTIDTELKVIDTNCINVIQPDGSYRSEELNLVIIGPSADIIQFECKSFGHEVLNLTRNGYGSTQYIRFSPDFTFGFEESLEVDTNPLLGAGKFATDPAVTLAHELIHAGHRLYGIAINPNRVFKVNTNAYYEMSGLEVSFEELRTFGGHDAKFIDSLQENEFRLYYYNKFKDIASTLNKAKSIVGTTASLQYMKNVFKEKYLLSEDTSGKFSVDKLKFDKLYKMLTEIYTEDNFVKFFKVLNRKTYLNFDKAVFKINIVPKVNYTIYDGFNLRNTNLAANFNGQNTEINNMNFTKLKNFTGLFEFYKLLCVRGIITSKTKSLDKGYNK
Botulinum neurotoxin type F, sequence (P30996 1-436 limits assumed): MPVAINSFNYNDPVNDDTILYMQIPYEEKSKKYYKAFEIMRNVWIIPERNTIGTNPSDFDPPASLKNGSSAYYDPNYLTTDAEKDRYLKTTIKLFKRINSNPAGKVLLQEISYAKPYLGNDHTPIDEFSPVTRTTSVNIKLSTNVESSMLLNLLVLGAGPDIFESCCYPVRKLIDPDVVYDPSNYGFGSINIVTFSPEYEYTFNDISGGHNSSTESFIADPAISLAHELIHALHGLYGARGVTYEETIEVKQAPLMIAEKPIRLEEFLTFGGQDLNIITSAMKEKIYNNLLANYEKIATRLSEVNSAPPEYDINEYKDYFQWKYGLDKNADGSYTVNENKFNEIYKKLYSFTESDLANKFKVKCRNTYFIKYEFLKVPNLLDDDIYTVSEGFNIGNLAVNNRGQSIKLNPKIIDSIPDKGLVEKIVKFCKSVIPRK
Lethal factor, sequence (P15917 whole entry): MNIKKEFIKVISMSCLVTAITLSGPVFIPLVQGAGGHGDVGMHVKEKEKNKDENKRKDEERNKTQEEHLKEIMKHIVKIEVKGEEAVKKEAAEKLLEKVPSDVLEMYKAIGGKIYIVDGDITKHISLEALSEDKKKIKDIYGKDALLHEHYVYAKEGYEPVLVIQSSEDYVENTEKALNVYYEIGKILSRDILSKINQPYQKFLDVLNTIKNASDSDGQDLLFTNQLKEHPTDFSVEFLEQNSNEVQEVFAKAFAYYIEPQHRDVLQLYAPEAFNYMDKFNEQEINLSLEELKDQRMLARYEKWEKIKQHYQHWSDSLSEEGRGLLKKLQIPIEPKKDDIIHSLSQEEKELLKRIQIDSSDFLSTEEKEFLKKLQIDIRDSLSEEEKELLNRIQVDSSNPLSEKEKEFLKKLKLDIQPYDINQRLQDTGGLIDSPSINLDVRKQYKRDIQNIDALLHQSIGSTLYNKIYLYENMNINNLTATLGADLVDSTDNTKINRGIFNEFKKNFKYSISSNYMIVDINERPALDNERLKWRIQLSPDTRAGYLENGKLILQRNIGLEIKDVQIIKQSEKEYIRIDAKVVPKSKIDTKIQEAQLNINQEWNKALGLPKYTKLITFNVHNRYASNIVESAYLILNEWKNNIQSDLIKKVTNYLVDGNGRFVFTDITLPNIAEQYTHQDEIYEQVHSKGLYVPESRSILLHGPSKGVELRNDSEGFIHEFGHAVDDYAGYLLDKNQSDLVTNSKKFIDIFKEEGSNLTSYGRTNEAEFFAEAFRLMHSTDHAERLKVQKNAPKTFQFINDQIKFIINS
Hexokinase-1, sequence (P19367 whole entry): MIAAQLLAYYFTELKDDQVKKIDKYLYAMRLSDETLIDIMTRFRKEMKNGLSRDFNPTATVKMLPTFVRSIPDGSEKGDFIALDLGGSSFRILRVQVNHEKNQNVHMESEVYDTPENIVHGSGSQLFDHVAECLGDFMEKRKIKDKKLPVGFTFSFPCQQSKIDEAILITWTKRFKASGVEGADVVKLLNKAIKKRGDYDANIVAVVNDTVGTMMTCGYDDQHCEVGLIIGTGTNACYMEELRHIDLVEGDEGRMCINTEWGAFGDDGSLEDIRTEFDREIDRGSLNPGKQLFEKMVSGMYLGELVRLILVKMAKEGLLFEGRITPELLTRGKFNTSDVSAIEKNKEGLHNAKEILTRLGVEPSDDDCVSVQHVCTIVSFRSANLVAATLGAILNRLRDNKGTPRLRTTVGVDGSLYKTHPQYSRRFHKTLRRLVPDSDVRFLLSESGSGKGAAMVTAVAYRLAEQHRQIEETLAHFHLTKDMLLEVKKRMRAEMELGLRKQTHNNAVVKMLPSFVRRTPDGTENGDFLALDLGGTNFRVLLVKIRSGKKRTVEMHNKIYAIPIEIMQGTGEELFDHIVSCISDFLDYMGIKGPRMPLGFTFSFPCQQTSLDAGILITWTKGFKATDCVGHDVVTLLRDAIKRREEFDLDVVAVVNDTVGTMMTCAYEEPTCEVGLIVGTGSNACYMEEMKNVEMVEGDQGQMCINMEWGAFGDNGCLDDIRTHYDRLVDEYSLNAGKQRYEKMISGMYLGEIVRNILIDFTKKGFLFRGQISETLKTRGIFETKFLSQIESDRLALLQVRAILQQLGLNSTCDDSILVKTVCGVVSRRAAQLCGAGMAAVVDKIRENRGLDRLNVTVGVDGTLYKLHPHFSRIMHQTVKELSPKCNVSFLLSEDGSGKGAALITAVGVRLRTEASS

| SMILES | EC50 [1] | EC50 (Hexokinase HKDC1) | EC50 (Hexokinase-1) | IC50 (Nonstructural protein 1) | AC50 [2] | EC50 (Lethal factor) | AC50 (HEK293) | AC50 [3] | AC50 [4] | EC50 [5] | CC50 [6] |
| --- | --- | --- | --- | --- | --- | --- | --- | --- | --- | --- | --- |
| CC(=NNc1nc2ccccc2o1)c1cc2ccccc2cn1 | 9.4 µM (active) | 2.24 µM (active) | > 80 µM (inactive) | 7.16 µM (active) | 0.175 µM (active) | 20 µM (inactive) | 0.0887 µM (active) | 16.9 µM (active) | 1.7 µM (active) | 5.1 µM (active) | – |
| O=C(CSc1nc2ccccc2c(=O)[nH]1)NC1CCOCC1 | – | – | – | – | – | – | – | – | – | – | > 100 µM (inconclusive) |

— ChEMBL document CHEMBL1201862, “PubChem BioAssay data set” (2004)
